Measurements reported in ChEMBL document CHEMBL5505970 (J Med Chem, 2024).
The source made the active and inactive calls. No cut-off for these calls is given here.

Key:
[1] = Clearance in rat hepatocytes at 1 uM measured per million cells by ESI/LC-MS/MS analysis; type: ADME, cell-based, Hepatocyte; details: read-out: CLH
[2] = Toxicity in NOD-SCID mouse xenografted with human Granta-519 cells assessed as late stage erythroblasts in bone marrow at 10 mg/kg, po qd for 3 days and measured at 2 days after treatment cessation by flow cytometry; type: organism-based; details: in vivo, 72 h, time 3 day
[3] = tested on: Granta-519; experiment: Antitumor activity against human Granta-519 cells xenografted in NOD-SCID mouse assessed as decrease in tumor volume at 25 mg/kg, po qd for 5 days and measured at 2 days after drug treatment cessation; type: functional, organism-based; details: time 5.0 day
[4] = Clearance in dog liver microsomes at 1 uM in presence of NADPH by ESI/LC-MS/MS analysis; type: ADME, Canis lupus familiaris, Microsome; details: read-out: CLH
[5] = Toxicity in BALB/c mouse assessed as early stage erythroblasts in bone marrow at 10 mg/kg, po qd for 3 days and measured at 2 days after treatment discontinuation by flow cytometry; type: organism-based; details: in vivo, 72 h, time 3 day
[6] = Clearance in Sprague-Dawley rat at 1 mg/kg, iv formulated as a solution in 10% PG:18% PEG400 in water or 5% NMP:95% (10% VitE TPGS in water) measured for 24 hrs by reverse phase liquid chromatography coupled to mass spectrometry; type: ADME, organism-based; details: in vivo
[7] = Toxicity in BALB/c mouse assessed as early stage erythroblasts in bone marrow at 10 mg/kg, po qd for 3 days and measured at 1 day after treatment discontinuation by flow cytometry; type: organism-based; details: in vivo, 72 h, time 3 day
[8] = Toxicity in NOD-SCID mouse xenografted with human Granta-519 cells assessed as red blood cells at 30 mg/kg, po qd for 3 days and 4 days off treatment and measured on day 14; type: organism-based; details: in vivo, 72 h, time 3 day
[9] = Toxicity in NOD-SCID mouse xenografted with human Granta-519 cells assessed as red blood cells count at 5 mg/kg, po qd for 3 days and 4 days off intermittent dosing for 3 cycles co-administered with PARP inhibitor, niraparib from day 3 to day 6 in each cycle and measured on day 21; type: organism-based; details: in vivo, 504 h, time 21 day
[10] = Toxicity in BALB/c mouse assessed as reticulocytes in bone marrow at 10 mg/kg, po qd for 3 days and measured at 4 days after treatment discontinuation; type: organism-based; details: in vivo, 72 h, time 3 day
[11] = Oral bioavailability in Sprague-Dawley rat at 2.5 to 5 mg/kg formulated as a solution in 5% NMP:95% (10% VitE TPGS in water) measured for 24 hrs by reverse phase liquid chromatography coupled to mass spectrometry; type: ADME, organism-based; details: in vivo, dose 2.5-5 mg/kg
[12] = Toxicity in NOD-SCID mouse xenografted with human Granta-519 cells assessed as changes in body weight at 25 mg/kg, po qd for 5 days and measured at 2 days after drug treatment cessation; type: organism-based; details: in vivo, 120 h, time 5 day
[13] = Oral bioavailability in cynomolgus monkey at 1 mg/kg formulated as suspension in 10% propylene glycol:18% PEG400 in water measured for 24 hrs by reverse phase liquid chromatography coupled to mass spectrometry; type: ADME, organism-based, Macaca fascicularis; details: in vivo
[14] = Toxicity in BALB/c mouse assessed as megakaryocytes in bone marrow at 10 mg/kg, po qd for 3 days; type: organism-based; details: in vivo, 72 h, time 3 day
[15] = Toxicity in BALB/c mouse assessed as reduction in total viable cell counts in femur at 10 mg/kg, po qd for 3 days; type: organism-based; details: in vivo, 72 h, time 3 day
[16] = tested on: Granta-519; experiment: Antitumor activity against human Granta-519 cells xenografted in NOD-SCID mouse assessed as decrease in tumor volume at 10 mg/kg, po qd for 7 days; type: functional, organism-based; details: time 7.0 day
[17] = Toxicity in NOD-SCID mouse xenografted with human Granta-519 cells assessed as late stage erythroblasts in bone marrow at 10 mg/kg, po qd for 3 days and measured at 4 days after treatment cessation by flow cytometry; type: organism-based; details: in vivo, 72 h, time 3 day
[18] = Clearance in cynomolgus monkey at 0.5 mg/kg, iv formulated as a solution in 10% PG:18% PEG400 in water or 5% NMP:95% (10% VitE TPGS in water) measured for 24 hrs by reverse phase liquid chromatography coupled to mass spectrometry; type: ADME, organism-based, Macaca fascicularis; details: in vivo
[19] = Toxicity in NOD-SCID mouse xenografted with human Granta-519 cells assessed as early stage erythroblasts at 30 mg/kg, po qd for 3 days and measured at 2 days after treatment discontinuation by flow cytometry; type: organism-based; details: in vivo, 72 h, time 3 day
[20] = Toxicity in NOD-SCID mouse xenografted with human Granta-519 cells assessed as red blood cells count at 5 mg/kg, po qd for 3 days and 4 days off intermittent dosing for 3 cycles co-administered with PARP inhibitor, niraparib and measured on day 21; type: organism-based; details: in vivo, 504 h, time 21 day
[21] = Toxicity in NOD-SCID mouse xenografted with human Granta-519 cells assessed as changes in body weight at 30 mg/kg, po qd for 3 days and measured at 4 days after drug treatment cessation; type: organism-based; details: in vivo, 72 h, time 3 day
[22] = Clearance in dog hepatocytes at 1 uM measured per million cells by ESI/LC-MS/MS analysis; type: ADME, cell-based, Canis lupus familiaris, Hepatocyte; details: read-out: CLH
[23] = Clearance in mouse hepatocytes at 1 uM measured per million cells by ESI/LC-MS/MS analysis; type: ADME, cell-based, Hepatocyte; details: read-out: CLH
[24] = Toxicity in NOD-SCID mouse xenografted with human Granta-519 cells assessed as late stage erythroblasts in bone marrow at 10 mg/kg, po qd for 3 days co-administered with PARP inhibitor, niraparib and measured at 2 days after treatment cessation by flow cytometry; type: organism-based; details: in vivo, 72 h, time 3 day
[25] = Clearance in human liver microsomes at 1 uM in presence of NADPH by ESI/LC-MS/MS analysis; type: ADME, Microsome; details: read-out: CLH
[26] = Toxicity in BALB/c mouse assessed as late stage erythroblasts in bone marrow at 10 mg/kg, po qd for 3 days and 4 days off intermittent dosing for 4 cycles by flow cytometry; type: organism-based; details: in vivo, 672 h, time 28 day
[27] = target: Serine/threonine-protein kinase SMG1 (Homo sapiens) (UniProt Q96Q15); experiment: Inhibition of SMG1 in human Jurkat cell lysates at 0.03 to 0.3 uM in presence of biotinylated ADP by KiNativ profiling based mass spectrometry; type: subcellular; details: dose 0.03-0.3 µM
[28] = target: Serine/threonine-protein kinase ATR (Homo sapiens, UniProt Q13535); experiment: Inhibition of ATR in gemcitabine-stimulated human LoVo cells assessed as decrease in CHK1 phosphorylation at Ser345 residue; type: cell-based; details: lovo
[29] = Toxicity in NOD-SCID mouse xenografted with human Granta-519 cells assessed as reduction in late stage erythroblasts in bone marrow at 10 mg/kg, po qd for 1 day co-administered with PARP inhibitor, niraparib by flow cytometry; type: organism-based; details: in vivo, 24 h
[30] = tested on: Granta-519; experiment: Antitumor activity against human Granta-519 cells xenografted in NOD-SCID mouse assessed as decrease in tumor volume at 30 mg/kg, po qd for 3 days and measured at 4 days after drug treatment cessation; type: functional, organism-based; details: time 3.0 day
[31] = target: Phosphatidylinositol 4-phosphate 3-kinase C2 domain-containing subunit beta (Homo sapiens) (UniProt O00750); experiment: Inhibition of PIK3C2B in human Jurkat cell lysates at 0.3 uM in presence of biotinylated ADP by KiNativ profiling based mass spectrometry; type: subcellular
[32] = Oral bioavailability in Sprague-Dawley rat at 20 mg/kg formulated as suspension in 0.5% methocel and 0.02% SLS measured for 24 hrs by reverse phase liquid chromatography coupled to mass spectrometry; type: ADME, organism-based; details: in vivo

Chain of Serine/threonine-protein kinase ATR (Q13535 whole entry): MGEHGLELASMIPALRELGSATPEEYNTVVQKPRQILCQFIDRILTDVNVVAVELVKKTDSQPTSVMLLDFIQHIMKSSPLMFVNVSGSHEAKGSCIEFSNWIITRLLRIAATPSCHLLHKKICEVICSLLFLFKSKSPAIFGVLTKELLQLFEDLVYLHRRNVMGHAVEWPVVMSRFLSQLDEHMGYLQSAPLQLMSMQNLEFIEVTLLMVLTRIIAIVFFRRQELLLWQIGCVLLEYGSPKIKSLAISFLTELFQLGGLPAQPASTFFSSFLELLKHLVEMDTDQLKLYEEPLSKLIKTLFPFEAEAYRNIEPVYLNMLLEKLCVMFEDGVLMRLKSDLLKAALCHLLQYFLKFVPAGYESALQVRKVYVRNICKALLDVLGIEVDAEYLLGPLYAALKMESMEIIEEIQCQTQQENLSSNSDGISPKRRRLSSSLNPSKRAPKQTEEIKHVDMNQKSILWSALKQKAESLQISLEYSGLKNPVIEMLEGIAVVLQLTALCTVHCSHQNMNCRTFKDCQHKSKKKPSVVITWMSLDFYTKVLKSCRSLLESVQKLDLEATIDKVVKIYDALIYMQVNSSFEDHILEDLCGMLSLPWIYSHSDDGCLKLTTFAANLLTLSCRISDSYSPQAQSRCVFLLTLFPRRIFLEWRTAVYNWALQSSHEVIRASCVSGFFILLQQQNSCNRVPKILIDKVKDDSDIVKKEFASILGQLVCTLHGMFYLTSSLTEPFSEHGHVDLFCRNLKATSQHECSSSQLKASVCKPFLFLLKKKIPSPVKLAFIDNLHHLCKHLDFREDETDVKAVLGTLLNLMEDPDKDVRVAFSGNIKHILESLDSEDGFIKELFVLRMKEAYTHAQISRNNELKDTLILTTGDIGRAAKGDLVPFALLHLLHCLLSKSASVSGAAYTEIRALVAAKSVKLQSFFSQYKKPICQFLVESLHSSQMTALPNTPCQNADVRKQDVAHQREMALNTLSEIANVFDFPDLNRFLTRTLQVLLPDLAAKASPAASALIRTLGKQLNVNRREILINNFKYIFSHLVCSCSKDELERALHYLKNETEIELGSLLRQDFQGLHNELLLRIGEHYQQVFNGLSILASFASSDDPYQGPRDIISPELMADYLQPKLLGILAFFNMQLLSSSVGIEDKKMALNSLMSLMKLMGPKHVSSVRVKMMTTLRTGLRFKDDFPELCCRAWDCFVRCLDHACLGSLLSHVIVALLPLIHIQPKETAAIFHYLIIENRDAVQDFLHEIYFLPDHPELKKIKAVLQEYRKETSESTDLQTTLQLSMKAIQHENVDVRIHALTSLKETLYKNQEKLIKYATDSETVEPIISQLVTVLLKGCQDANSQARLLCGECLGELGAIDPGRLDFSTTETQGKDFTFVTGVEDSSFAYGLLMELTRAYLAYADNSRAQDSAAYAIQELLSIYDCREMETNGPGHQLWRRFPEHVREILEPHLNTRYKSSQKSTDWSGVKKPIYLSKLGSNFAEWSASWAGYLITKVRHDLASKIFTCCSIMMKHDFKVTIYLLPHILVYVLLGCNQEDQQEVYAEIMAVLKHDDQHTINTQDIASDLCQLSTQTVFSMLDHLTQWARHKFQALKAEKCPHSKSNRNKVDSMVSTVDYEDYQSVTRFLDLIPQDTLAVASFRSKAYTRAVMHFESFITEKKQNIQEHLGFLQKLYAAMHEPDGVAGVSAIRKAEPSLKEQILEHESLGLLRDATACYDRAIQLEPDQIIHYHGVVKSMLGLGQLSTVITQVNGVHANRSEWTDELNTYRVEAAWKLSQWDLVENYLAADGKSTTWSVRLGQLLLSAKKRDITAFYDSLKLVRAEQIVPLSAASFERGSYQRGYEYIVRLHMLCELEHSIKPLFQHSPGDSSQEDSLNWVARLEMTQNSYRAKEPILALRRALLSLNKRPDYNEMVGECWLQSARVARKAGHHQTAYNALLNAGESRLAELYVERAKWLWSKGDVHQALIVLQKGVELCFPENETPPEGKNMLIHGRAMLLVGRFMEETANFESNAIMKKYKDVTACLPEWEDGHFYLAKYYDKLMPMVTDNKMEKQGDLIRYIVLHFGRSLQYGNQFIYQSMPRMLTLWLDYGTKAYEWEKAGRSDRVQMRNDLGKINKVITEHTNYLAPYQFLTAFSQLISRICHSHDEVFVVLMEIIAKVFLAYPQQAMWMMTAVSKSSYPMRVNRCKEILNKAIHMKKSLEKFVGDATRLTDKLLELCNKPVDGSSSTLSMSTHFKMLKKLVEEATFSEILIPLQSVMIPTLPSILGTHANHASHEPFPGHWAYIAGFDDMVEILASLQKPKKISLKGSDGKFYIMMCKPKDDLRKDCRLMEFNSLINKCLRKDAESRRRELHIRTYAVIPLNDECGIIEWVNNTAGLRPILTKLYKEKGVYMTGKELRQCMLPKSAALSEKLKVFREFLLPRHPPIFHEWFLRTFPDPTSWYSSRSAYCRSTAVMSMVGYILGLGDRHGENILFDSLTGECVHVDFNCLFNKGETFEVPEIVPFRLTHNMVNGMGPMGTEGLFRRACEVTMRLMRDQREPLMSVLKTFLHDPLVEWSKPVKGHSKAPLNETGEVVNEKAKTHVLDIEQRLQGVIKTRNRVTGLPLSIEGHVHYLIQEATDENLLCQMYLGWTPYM
Chain of Phosphatidylinositol 4-phosphate 3-kinase C2 domain-containing subunit beta (Homo sapiens) (O00750 whole entry, the tested form may be a part): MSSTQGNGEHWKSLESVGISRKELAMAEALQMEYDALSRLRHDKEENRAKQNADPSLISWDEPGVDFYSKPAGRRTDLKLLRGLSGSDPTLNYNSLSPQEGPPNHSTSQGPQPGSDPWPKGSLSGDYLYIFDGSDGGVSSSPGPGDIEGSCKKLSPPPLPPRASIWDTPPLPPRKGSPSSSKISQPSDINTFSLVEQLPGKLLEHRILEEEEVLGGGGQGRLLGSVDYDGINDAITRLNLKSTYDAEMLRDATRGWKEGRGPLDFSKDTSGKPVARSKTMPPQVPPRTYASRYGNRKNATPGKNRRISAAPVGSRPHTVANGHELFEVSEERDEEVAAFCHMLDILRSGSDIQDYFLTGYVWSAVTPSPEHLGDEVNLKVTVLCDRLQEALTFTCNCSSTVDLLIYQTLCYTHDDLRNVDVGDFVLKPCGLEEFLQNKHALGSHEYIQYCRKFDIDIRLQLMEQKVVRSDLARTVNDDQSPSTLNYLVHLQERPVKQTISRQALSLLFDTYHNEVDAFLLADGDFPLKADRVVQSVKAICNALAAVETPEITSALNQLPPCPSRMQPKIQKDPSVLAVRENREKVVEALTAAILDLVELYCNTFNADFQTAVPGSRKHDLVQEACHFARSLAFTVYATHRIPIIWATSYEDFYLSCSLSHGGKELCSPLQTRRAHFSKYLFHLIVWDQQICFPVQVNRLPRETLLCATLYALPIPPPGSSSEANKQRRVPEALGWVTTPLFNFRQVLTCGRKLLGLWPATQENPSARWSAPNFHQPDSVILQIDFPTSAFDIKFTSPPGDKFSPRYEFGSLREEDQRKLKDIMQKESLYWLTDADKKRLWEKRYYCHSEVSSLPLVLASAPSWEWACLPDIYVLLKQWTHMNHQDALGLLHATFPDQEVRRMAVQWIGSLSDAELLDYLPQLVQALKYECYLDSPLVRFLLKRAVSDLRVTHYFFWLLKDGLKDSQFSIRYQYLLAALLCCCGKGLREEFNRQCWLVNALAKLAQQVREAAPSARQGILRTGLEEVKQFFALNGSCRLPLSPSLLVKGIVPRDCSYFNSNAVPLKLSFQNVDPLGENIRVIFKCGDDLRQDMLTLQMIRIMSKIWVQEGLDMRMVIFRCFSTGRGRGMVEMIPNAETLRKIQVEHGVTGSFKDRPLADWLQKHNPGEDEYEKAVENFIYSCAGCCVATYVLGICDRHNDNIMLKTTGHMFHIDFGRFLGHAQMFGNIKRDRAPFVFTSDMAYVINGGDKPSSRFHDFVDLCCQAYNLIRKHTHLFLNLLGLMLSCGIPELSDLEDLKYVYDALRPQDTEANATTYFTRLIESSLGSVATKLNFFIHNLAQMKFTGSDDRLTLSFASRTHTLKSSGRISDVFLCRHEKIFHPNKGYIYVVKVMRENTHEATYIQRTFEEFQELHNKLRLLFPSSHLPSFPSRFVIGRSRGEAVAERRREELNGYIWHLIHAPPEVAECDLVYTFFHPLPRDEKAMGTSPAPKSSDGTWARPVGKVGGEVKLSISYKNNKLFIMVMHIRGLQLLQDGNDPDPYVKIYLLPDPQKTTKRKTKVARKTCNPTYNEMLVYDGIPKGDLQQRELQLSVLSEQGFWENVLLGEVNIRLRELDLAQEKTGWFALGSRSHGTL

hepatocyte CLint at 1 µM [1]: 17 µL/min/1e6 cells
microsomal CLint at 1 µM [4]: < 11.6 µL/min/mg
clearance [6]: 22 mL/min/kg
bioavailability [11]: 66%
bioavailability [13]: 56%
clearance [18]: 14 mL/min/kg
hepatocyte CLint at 1 µM [22]: < 1 µL/min/1e6 cells
hepatocyte CLint at 1 µM [23]: 11 µL/min/1e6 cells
microsomal CLint at 1 µM [25]: < 11.6 µL/min/mg
inhibition [27]: Active
IC50 [28]: 0.33 nM
inhibition [31]: Active
bioavailability [32]: 45%
Structure (SMILES): C[C@@H]1COCCN1c1cc([C@]2(O)C[C@H]3CC[C@@H](C2)O3)c2cnn(-c3cc[nH]n3)c2n1 [CAMONSERTIB]
Activity [2]: Non-Toxic
Activity [3]: Active
Activity [5]: Non-Toxic
Activity [7]: Non-Toxic
Activity [8]: Non-Toxic
Activity [9]: Non-Toxic
Activity [10]: Non-Toxic
Activity [12]: Non-Toxic
Activity [14]: Non-Toxic
Activity [15]: Toxic
Activity [16]: Active
Activity [17]: Non-Toxic
Activity [19]: Non-Toxic
Activity [20]: Non-Toxic
Activity [21]: Non-Toxic
Activity [24]: Non-Toxic
Activity [26]: Non-Toxic
Activity [29]: Toxic
Activity [30]: Active
